Here are results for three compounds from patent US5073549A, “BU-4164E - A and B, prolyl endopeptidase inhibitors and their methods of use” (Bristol-Myers Squibb Company, priority 1990, dated 1991).

Series [1] deals with T1, Flavobacterium meningosepticum PED (Elizabethkingia meningoseptica, UniProt P27028).
T1 construct: purchased Seikagaku Kogyo Co. Ltd
The series is described as follows: Prolyl endopeptidase inhibition assay (Flavobacterium enzyme, Z-Gly-Pro-pNA substrate). The class given is biochemical. The conditions noted are these: pre-incubated 30 minutes at 30° C., pH 7.0. As to the method:
(§1) Two enzymes were used: Flavobacterial enzyme for the screening and the isolation study and partially purified rabbit brain enzyme for in vitro evaluation. Ten μl of Flavobacterium meningosepticum PED,^10, 11 (Seikagaku Kogyo Co. Ltd., 0.5 unit/ml in 50 mM phosphate buffer, pH 7.0) or rabbit brain PED partially purified from the whole brain homogenate^12, 13.5 μl of a test sample and 86.5 μl of 100 mM phosphate buffer (pH 7.0) were mixed in a well of a 96-well microplate and pre-incubated for about 30 minutes at about 30° C. The reaction was started by addition of 25 μl of 2 mM carbobenzyloxyglycyl-prolyl-p-nitroanilide (Z-Gly-Pro-pNA) in 40% dioxane-100 mM phosphate buffer, pH 7.0. After about 5 minute-incubation at about 30° C., the amount of released p-nitroaniline was determined colorimetrically with a microplate autoreader (Titertek Multiskan® MMC) at 414 nm. For control, the reaction buffer was added to the reaction mixture instead of the test sample. The percentage of inhibition was calculated by the following equation: [formula]

Another series deals with T2, rabbit brain PED (Oryctolagus cuniculus, UniProt A0A5F9CCV6).
T2 construct: rabbit brain PED partially purified from the whole brain homogenate; from tissue; host or cells: rabbit whole brain homogenate
T2 sequence (A0A5F9CCV6 1-707): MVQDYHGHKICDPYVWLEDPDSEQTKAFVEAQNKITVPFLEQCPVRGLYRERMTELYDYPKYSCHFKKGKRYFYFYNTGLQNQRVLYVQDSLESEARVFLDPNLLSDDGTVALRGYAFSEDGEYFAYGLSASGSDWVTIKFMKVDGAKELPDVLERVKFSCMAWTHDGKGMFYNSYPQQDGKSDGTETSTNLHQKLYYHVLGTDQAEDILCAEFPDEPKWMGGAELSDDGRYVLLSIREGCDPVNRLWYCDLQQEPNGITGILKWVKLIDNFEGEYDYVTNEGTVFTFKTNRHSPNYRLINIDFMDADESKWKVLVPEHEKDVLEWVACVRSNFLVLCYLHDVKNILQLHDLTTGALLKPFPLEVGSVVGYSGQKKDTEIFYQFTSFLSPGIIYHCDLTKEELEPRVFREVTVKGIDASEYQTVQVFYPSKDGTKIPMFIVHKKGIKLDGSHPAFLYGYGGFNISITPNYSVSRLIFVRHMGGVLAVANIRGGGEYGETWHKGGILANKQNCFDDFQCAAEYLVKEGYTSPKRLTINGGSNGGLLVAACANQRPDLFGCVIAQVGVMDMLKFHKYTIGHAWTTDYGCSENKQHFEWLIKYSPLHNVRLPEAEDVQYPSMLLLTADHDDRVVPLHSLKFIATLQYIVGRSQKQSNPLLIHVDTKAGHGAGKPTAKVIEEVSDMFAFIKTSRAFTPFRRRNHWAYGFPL
The series is described as follows: Prolyl endopeptidase inhibition assay (partially purified rabbit brain enzyme, Z-Gly-Pro-pNA substrate). The class given is biochemical. The conditions noted are these: pre-incubated 30 minutes at 30° C., pH 7.0. As to the method:
as §1

Series [2] in a line: Solubility (physico-chemical properties). In kind it is physicochemical. The conditions noted are these: for Solubility: Table 3.

Where a SMILES comes first, the peptide text is derived from it. [ ]: non-standard residue; d: D form. The star is where a group is joined. ξ: configuration not given here. Cbz = O=C(OCc1ccccc1)*; ξP = O=C(O)C1CCCN1

T1 sequence (P27028 21-705): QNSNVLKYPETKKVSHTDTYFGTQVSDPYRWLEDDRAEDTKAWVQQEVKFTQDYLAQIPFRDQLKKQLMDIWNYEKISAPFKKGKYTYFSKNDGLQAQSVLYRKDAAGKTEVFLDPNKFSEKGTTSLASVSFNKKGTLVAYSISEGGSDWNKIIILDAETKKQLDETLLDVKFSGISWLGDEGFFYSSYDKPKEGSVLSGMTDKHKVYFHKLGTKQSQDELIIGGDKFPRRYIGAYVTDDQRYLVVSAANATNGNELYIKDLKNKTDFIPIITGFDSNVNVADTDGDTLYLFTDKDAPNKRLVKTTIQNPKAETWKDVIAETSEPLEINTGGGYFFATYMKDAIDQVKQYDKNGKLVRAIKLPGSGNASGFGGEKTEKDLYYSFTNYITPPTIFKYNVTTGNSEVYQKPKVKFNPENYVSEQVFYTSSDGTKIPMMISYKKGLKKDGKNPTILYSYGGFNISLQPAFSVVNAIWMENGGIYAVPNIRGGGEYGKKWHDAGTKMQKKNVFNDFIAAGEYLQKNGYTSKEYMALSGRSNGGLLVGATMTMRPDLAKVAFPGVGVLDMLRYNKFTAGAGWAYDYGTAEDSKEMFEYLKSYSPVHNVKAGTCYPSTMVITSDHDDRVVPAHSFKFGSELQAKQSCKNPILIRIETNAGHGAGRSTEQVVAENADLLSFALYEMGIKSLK

As for `CC(C)CC/C=C/C(=O)NC1CCCNC(=O)C(CC(C)C)NC(=O)C(=O)C(C)NC1=O` (stereo not drawn) [BU-4164E A], the “PED inhibitory activity IC50, Flavobacterium” value in series [1] was determined as 3.7 ng/mL. Further, the “PED inhibitory activity IC50, Rabbit brain” value at rabbit brain PED was found to be 85 ng/mL. For the same compound, in series [2], the Solubility entry was “Soluble in DMSO”; the “Solubility in dimethyl sulfoxide” value was “soluble”; the “Solubility in other organic solvents and water” value is on record as “practically insoluble”.
Take `CCC(C)CC/C=C/C(=O)NC1CCCNC(=O)C(CC(C)C)NC(=O)C(=O)C(C)NC1=O` (stereo not drawn) [BU-4164E B]: the “PED inhibitory activity IC50, Flavobacterium” value in series [1] was determined as 2.1 ng/mL. On rabbit brain PED, the “PED inhibitory activity IC50, Rabbit brain” value was found to be 31 ng/mL. In series [2], the Solubility entry is on record as “Soluble in DMSO”; the “Solubility in dimethyl sulfoxide” value was “soluble”; the “Solubility in other organic solvents and water” value is “practically insoluble”.
For the compound `CC(C)[C@H](NC(=O)OCc1ccccc1)C(=O)N1CCCC1C=O` (stereo partly drawn) [Z-Val-prolinal, reference compound] (Cbz-Val-[ξP]-aldehyde), the “PED inhibitory activity IC50, Flavobacterium” value in series [1] came to 3.6 ng/mL. For the same compound, the “PED inhibitory activity IC50, Rabbit brain” value at rabbit brain PED stood at 16 ng/mL.
